Experiments:
Format in all cases: in vivo
SETFA [1] = test: Post-emergence herbicidal activity, glasshouse pot test; details: Setaria faberi; application post-emergence; rate 1000 g/Ha; evaluated after 13 days; further: key: 5=total damage to plant; 0=no damage to plant
Outline: (§1)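 Seeds were sown in standard soil and cultivated for 8 days under controlled glasshouse conditions. Seedlings were then sprayed with an aqueous solution of the formulated compound containing 0.5% Tween 20. Injury was rated after a further 13 days, where 5 indicated total damage.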

ZEAMX [2] = test: as above; details: Zea mays; application post-emergence; rate 1000 g/Ha; evaluated after 13 days
Outline: as §1

ALOMY [3] = test: as above; details: Alopecurus myosuroides; application post-emergence; rate 1000 g/Ha; evaluated after 13 days
Outline: as §1

ECHCG [4] = test: as above; details: Echinochloa crus-galli; application post-emergence; rate 1000 g/Ha; evaluated after 13 days
Outline: as §1

AMARE [5] = test: as above; details: Amaranthus retroflexus; application post-emergence; rate 1000 g/Ha; evaluated after 13 days
Outline: as §1

ABUTH [6] = test: as above; details: Abutilon theophrasti; application post-emergence; rate 1000 g/Ha; evaluated after 13 days
Outline: as §1

SETFA [7] = test: Pre-emergence herbicidal activity, glasshouse pot test; details: rate 1000 g/Ha, evaluated after 13 days, scale 0-5
Outline: (§2)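 Visual 0–5 injury score (5 = total damage) taken 13 days after spraying. Treatment applied one day after sowing, before emergence; glasshouse at 24/16 °C day/night, 14 h photoperiod, 65% humidity.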

ZEAMX [8] = test: as above; details: rate 1000 g/Ha, evaluated after 13 days, scale 0-5
Outline: as §2

ALOMY [9] = test: as above; details: rate 1000 g/Ha, evaluated after 13 days, scale 0-5
Outline: as §2

ECHCG [10] = test: as above; details: rate 1000 g/Ha, evaluated after 13 days, scale 0-5
Outline: as §2

AMARE [11] = test: as above; details: rate 1000 g/Ha, evaluated after 13 days, scale 0-5
Outline: as §2

ABUTH [12] = test: as above; details: rate 1000 g/Ha, evaluated after 13 days, scale 0-5
Outline: as §2
Wherever Post-emergence herbicidal activity ABUTH (damage score 0-5) is given: key: 5=total damage to plant; 0=no damage to plant.
Wherever Post-emergence herbicidal activity ALOMY (damage score 0-5) is given: key: 5=total damage to plant; 0=no damage to plant.
Wherever Post-emergence herbicidal activity AMARE (damage score 0-5) is given: key: 5=total damage to plant; 0=no damage to plant.
Wherever Post-emergence herbicidal activity ECHCG (damage score 0-5) is given: key: 5=total damage to plant; 0=no damage to plant.

Row | Compound | Post-emergence herbicidal activity SETFA (damage score 0-5) (SETFA [1]) | Post-emergence herbicidal activity ZEAMX (damage score 0-5) (ZEAMX [2]) | Post-emergence herbicidal activity ALOMY (damage score 0-5) (ALOMY [3]) | Post-emergence herbicidal activity ECHCG (damage score 0-5) (ECHCG [4]) | Post-emergence herbicidal activity AMARE (damage score 0-5) (AMARE [5]) | Post-emergence herbicidal activity ABUTH (damage score 0-5) (ABUTH [6]) | SETFA damage score, application pre-emergence (SETFA [7]) | ZEAMX damage score, application pre-emergence (ZEAMX [8]) | ALOMY damage score, application pre-emergence (ALOMY [9]) | ECHCG damage score, application pre-emergence (ECHCG [10]) | AMARE damage score, application pre-emergence (AMARE [11]) | ABUTH damage score, application pre-emergence (ABUTH [12])
1 | CCOC1C(O)N(c2cc(C(F)(F)F)c(-c3ccccc3)cn2)C(=O)N1C (stereo not drawn) [Compound A13] | 5 | 0 | 4 | 5 | 5 | 5 | 3 | 1 | 3 | 3 | 5 | 5
2 | CC1C(O)N(c2cc(C(F)(F)F)ccn2)C(=O)N1C (stereo not drawn) [Compound A19, 4-hydroxy-1,5-dimethyl-3-[4-(trifluoromethyl)-2-pyridyl]imidazolidin-2-one] | 5 | 4 | 5 | 5 | 5 | 5 | 5 | 3 | 4 | 5 | 5 | 5
3 | COc1cncc(-c2cnc(N3C(=O)N(C)C(C)C3O)cc2C(F)(F)F)c1 (stereo not drawn) [Compound A20] | 5 | 4 | 5 | 5 | 5 | 5 | 5 | 5 | 4 | 4 | 5 | 5
4 | COc1ccc(-c2cnc(N3C(=O)N(C)C(C)C3O)cc2C(F)(F)F)cn1 (stereo not drawn) [Compound A21] | 5 | 3 | 5 | 5 | 5 | 5 | 5 | 2 | 3 | 5 | 5 | 5
5 | COc1ncc(-c2cnc(N3C(=O)N(C)C(C)C3O)cc2C(F)(F)F)cn1 (stereo not drawn) [Compound A22] | 5 | 5 | 5 | 5 | 5 | 5 | 5 | 3 | 4 | 5 | 5 | 5
6 | COc1ccncc1-c1cnc(N2C(=O)N(C)C(C)C2O)cc1C(F)(F)F (stereo not drawn) [Compound A23] | 4 | 2 | 4 | 2 | 5 | 5 | 3 | 1 | 3 | 2 | 5 | 2
7 | Cc1ccc(-c2cnc(N3C(=O)N(C)C(C)C3O)cc2C(F)(F)F)cn1 (stereo not drawn) [Compound A24] | 5 | 4 | 5 | 5 | 5 | 5 | 4 | 3 | 4 | 5 | 5 | 5
8 | CC1C(O)N(c2cc(C(F)(F)F)c(I)cn2)C(=O)N1C (stereo not drawn) [Compound A25, 5-hydroxy-1-[5-iodo-4-(trifluoromethyl)-2-pyridyl]-3,4-dimethyl-imidazolidin-2-one] | 5 | 5 | 5 | 5 | 5 | 5 | 4 | 2 | 4 | 5 | 5 | 5
9 | CCOC1C(O)N(c2cc(C(F)(F)F)ccn2)C(=O)N1CC (stereo not drawn) [Compound A29] | 3 | 2 | 4 | 4 | 5 | 5 | 2 | 1 | 1 | 1 | 5 | 5
10 | C=CCC1C(O)N(c2cc(C(F)(F)F)ccn2)C(=O)N1C (stereo not drawn) [Compound A32, 5-allyl-4-hydroxy-1-methyl-3-[4-(trifluoromethyl)-2-pyridyl]imidazolidin-2-one] | 5 | 2 | 5 | 5 | 5 | 5 | 4 | 2 | 4 | 5 | 5 | 5

Source: patent publication US11608323B2 (SYNGENTA LIMITED, priority 2013, dated 2023)
